Results on five molecules are retold here after ChEMBL document CHEMBL1125393, “5-(Aminomethyl)-3-aryldihydrofuran-2(3H)-ones, a new class of monoamine oxidase-B inactivators” (J Med Chem, 1992).

One may read the Ki as a measure of affinity in units of concentration, obtained from inhibition or displacement. The low end stands for higher affinity, the high end for lower affinity. The term kinact denotes the rate constant of inactivation at saturating inhibitor.

The target in assay [1] is T1, Amine oxidase [flavin-containing] B (Bos taurus, UniProt P56560).
T1 sequence (P56560 whole entry): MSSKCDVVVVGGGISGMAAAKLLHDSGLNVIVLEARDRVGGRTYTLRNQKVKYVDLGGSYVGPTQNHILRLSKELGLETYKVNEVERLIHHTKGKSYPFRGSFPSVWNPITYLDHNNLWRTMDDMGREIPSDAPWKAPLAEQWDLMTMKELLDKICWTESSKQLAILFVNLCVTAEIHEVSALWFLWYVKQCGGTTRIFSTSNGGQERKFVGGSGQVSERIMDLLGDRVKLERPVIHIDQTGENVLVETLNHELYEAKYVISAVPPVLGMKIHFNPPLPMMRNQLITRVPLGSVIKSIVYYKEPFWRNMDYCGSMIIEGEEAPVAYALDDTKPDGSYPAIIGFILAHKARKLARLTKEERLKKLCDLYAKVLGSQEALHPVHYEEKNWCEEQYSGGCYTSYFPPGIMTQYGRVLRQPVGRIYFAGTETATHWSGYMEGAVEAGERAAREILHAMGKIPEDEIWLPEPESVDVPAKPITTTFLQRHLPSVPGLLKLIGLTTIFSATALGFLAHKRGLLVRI
The assay is described as follows: Inhibitory constant against beef liver mitochondrial monoamine oxidase-B (MAO-B).

Assay [2] addresses T1, Amine oxidase [flavin-containing] B. The assay is described as follows: Inactivation constant against beef liver mitochondrial monoamine oxidase-B (MAO-B). The settings on record: cattle.

Molecule `COc1ccc(N2CC(CN)OC2=O)cc1` (stereo not given) came in with a Ki in assay [1] of 12.5 mM. The inactivation rate constant (kinact) in assay [2] was 0.0133 s⁻¹.

On to `COc1ccc([C@@H]2C[C@@H](CN)OC2=O)cc1`, for which the inhibitory constant (Ki) in assay [1] stood at 18.2 mM. For the same molecule, in assay [2], the kinact was 0.383 s⁻¹.

For the molecule `NC[C@@H]1C[C@@H](c2ccccc2)C(=O)O1`, the Ki in assay [1] is 5.1 mM. Besides, in assay [2], the kinact was 0.0357 s⁻¹.

Molecule `COc1ccc([C@H]2C[C@@H](CN)OC2=O)cc1` came in with an inhibition constant Ki in assay [1] of 6.67 mM. In addition, in assay [2], the inactivation rate constant (kinact) was 0.074 s⁻¹.

In the case of `NC[C@@H]1C[C@H](c2ccccc2)C(=O)O1`, the Ki in assay [1] was determined as 4.2 mM. Further, the inactivation rate constant (kinact) in assay [2] was 0.0428 s⁻¹.
